The text below walks through data of publication PMC3344907, “Inhibitory Effects and Underlying Mechanism of 7-Hydroxyflavone Phosphate Ester in HeLa Cells” (PLoS ONE, 2012).

Assay [1] deals with T1, CaM-activated PDE1 (Ca2+-CaM-phosphodiesterase 1).
T1 construct: bovine brain PDE (Sigma-Aldrich P9529); with calmodulin (CaM)
The experiment in a line: PDE-Glo luminescence assay of CaM-activated PDE; supported by fluorescence quenching of the CaM-Ca2+-PDE system. In kind it is biochemical, Bos taurus.

The target is the same in assay [2]. The assay is described as follows: PDE-Glo luminescence assay of CaM-activated PDE. The assay is classed as biochemical, Bos taurus.

What is called IC50 is the concentration at which inhibition is half-maximal. A high value points to weaker potency in that assay.

Molecules are shown by their SMILES.

In assay [1], `CCOP(=O)(OCC)Oc1ccc2c(=O)cc(-c3ccccc3)oc2c1` [FP, diethyl flavon-7-yl phosphate] came in with a half-maximal inhibitory concentration (IC50) of 22.3 µM.
In the case of `O=c1cc(-c2ccccc2)oc2cc(O)ccc12` [HF, 7-hydroxyflavone], the midpoint of inhibition in assay [2], the IC50, lay at 76.7 µM.
